Tests used:
[1] = tested on: laser-induced choroidal neovascularization; test: laser-induced choroidal neovascularization in rats; assay type: in vivo; settings: rat
Description: In order to study the inhibitory effect of compound represented by the general formula [I] or a salt thereof on angiogenesis, the effects of nafamostat, FUT-187 and camostat, which are compounds represented by the general formula [I] or salts thereof, on laser-induced choroidal neovascularization in rats were studied. As a comparative compound, ethyl-4-(6-guanidinohexanoyloxy)benzoate methanesulfonate (hereinafter referred to as “gabexate”) represented by the following formula [III] was used.
A rat was given systemic anesthesia by intramuscular administration of 1 ml/kg of a mixed solution of a 5% (w/v) ketamine hydrochloride injectable solution and a 2% xylazine hydrochloride injectable solution (7:1), and a 0.5% (w/v) tropicamide-0.5% phenylephrine hydrochloride ophthalmic solution was instilled into the eyes to cause mydriasis, and then photocoagulation was carried out with a krypton laser photocoagulation apparatus. The photocoagulation was carried out in a posterior pole portion of ocular fundus at eight spots per eye sparsely by focusing on the retinal deep layer avoiding thick retinal vessels (coagulation conditions: spot size: 100 μm, output: 100 mW, coagulation time: 0.1 sec.). After the photocoagulation, the ocular fundus was photographed, and the site where the laser was irradiated was confirmed.
Nafamostat was dissolved in a 5% (w/v) glucose solution (prepared by dissolving D-glucose in physiological saline) to give a final concentration of 25 mg/ml, and the resulting nafamostat solution was intraperitoneally administered once a day at a dose of 1 ml/kg for 7 days including the day of surgery from the photocoagulation surgery. In the same manner, FUT-187 solutions at 25 mg/ml and 125 mg/ml and a camostat solution at 125 mg/ml were prepared, and each of the solutions was intraperitoneally administered once a day at a dose of 1 ml/kg for 7 days including the day of surgery from the photocoagulation surgery. In a comparative compound administration group, a solution obtained by dissolving gabexate in a glucose solution to give a final concentration of 50 mg/ml was administered in the same manner as above. In a vehicle administration group, a 5% (w/v) glucose solution was administered in the same manner.
On day 7 after photocoagulation, 0.1 ml of a 10% fluorescein solution was injected into the tail vein, and fluorescence fundus photography was carried out. In the fluorescence fundus photography, a spot where fluorescence leakage was not observed (absence of angiogenesis) was judged as negative, and a spot where fluorescence leakage was observed was judged as positive. When there are two photocoagulation sites where a little fluorescence leakage was observed, they were judged as positive (presence of angiogenesis). A neovascularization incidence rate was calculated in accordance with Equation 1. The neovascularization incidence rate was calculated based on the positive spot number relative to the 8 spots irradiated with a laser, and a choroidal neovascularization inhibition rate was calculated in accordance with Equation 2. The number of animals in each administration group is 4 to 7.
Each of nafamostat and FUT-187 was dissolved in a 1% (w/v) methyl cellulose solution to give a final concentration of 20 mg/ml, and the resulting solution was orally administered three times a day at a dose of 5 ml/kg for 7 days including the day of surgery from the photocoagulation surgery. In the same manner, camostat was suspended in a 1% (w/v) methyl cellulose solution to give a final concentration of 20 mg/ml, and the resulting suspension was orally administered three times a day at a dose of 5 ml/kg for 7 days including the day of surgery from the photocoagulation surgery. In a vehicle administration group, a 1% (w/v) methyl cellulose solution was administered in the same manner.
The evaluation was carried out with the same method as described above. The case number in each administration group is 6 to 7. […]

trypsin = trypsin (Homo sapiens, UniProt P07477); settings: known activity; cited from earlier work
[2] = intraperitoneal administration (Table 1)
[3] = intraperitoneal, 25 mg/kg/day once a day for 7 days, evaluated day 7 after photocoagulation
[4] = oral, 300 mg/kg/day (three times a day) for 7 days, evaluated day 7
[5] = oral, intravitreal and subconjunctival administration (Tables 2 to 4)

For `N=C(N)c1ccc2cc(OC(=O)c3ccc(NC4=NCCN4)cc3)ccc2c1` [FUT-187, 6′-amidino-2′-naphthyl-(4-(4,5-dihydro-1H-2-imidazolyl)amino) benzoate dimethanesulfonate], the “choroidal neovascularization inhibitory effect (in words)” value [1, 2] was “exhibited a high choroidal neovascularization inhibition rate”, the “Choroidal neovascularization inhibition rate (%)” value [1, 3] was 40.1% and the “Choroidal neovascularization inhibition rate (%)” value ([1]; intraperitoneal, 125 mg/kg/day once a day for 7 days, evaluated day 7 after photocoagulation) was 71.4%. For the same compound, the “Choroidal neovascularization inhibition rate (%)” value [1, 4] was 39.5%, the “choroidal neovascularization inhibitory effect (in words)” value [1, 5] was “exhibits an excellent choroidal neovascularization inhibitory effect” and the “trypsin inhibitory activity (in words)” value (trypsin) was “have the same activity”.

For `CCOC(=O)c1ccc(OC(=O)CCCCCNC(=N)N)cc1` [Gabexate, ethyl-4-(6-guanidinohexanoyloxy)benzoate methanesulfonate], the “choroidal neovascularization inhibitory effect (in words)” value [1, 2] is listed as “did not exhibit a choroidal neovascularization inhibitory effect”, the “Choroidal neovascularization inhibition rate (%)” value ([1]; intraperitoneal, 50 mg/kg/day once a day for 7 days, evaluated day 7 after photocoagulation) is listed as −30.2% and the “trypsin inhibitory activity (in words)” value (trypsin) is listed as “has a trypsin inhibitory activity”.

For `N=C(N)Nc1ccc(C(=O)Oc2ccc3cc(C(=N)N)ccc3c2)cc1` [Nafamostat, 6′-amidino-2′-naphthyl-4-guanidinobenzoate dimethanesulfonate], the “choroidal neovascularization inhibitory effect (in words)” value [1, 2] was “exhibited a high choroidal neovascularization inhibition rate”, the “Choroidal neovascularization inhibition rate (%)” value [1, 3] was 50.5% and the “Choroidal neovascularization inhibition rate (%)” value ([1]; intravitreal, 10 nmol/eye, immediately after photocoagulation and on day 3, evaluated day 7) was 26.5%. For the same compound, the “Choroidal neovascularization inhibition rate (%)” value [1, 4] was 32%, the “choroidal neovascularization inhibitory effect (in words)” value [1, 5] was “exhibits an excellent choroidal neovascularization inhibitory effect” and the “Choroidal neovascularization inhibition rate (%)” value ([1]; subconjunctival, 100 μg/eye/day once a day, evaluated day 7) was 51.6%. For the same compound, the “trypsin inhibitory activity (in words)” value (trypsin) was “have the same activity”.
